Data reported in patent publication US8586755B2, “Substituted nicotinamides as KCNQ2/3 modulators” (Grünenthal GmbH, priority 2009, dated 2013).

Target: T1, KCNQ2/3 channels (Homo sapiens, UniProt O43525+O43526)
T1 construct: expressed in transfected cells
Test: Fluorescence assay using a voltage sensitive dye (fluorimetry)
Type: cell-based
Settings: CHO-K1 cells expressing KCNQ2/3 channels; for EC50: agonistic activity; for Emax / Fluorimetry % efficacy (retigabine 50 μM = 100%): retigabine 50 μM = 100%; for Emax: read-out: Fluorimetry % efficacy (retigabine 50 μM = 100%)
In short: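 CHO-K1 cells expressing human KCNQ2/3, loaded 45 min with red membrane-potential dye in ES buffer pH 7.4 (1 mM KCl), compound 30 min at room temperature. Fluorescence (525/560 nm) read before (F1) and at peak after KCl to 92 mM final (F2); agonism from F2/F1 change, EC50 fitted.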

| Structure (SMILES) | EC50 [nM] | Emax [%] | Fluorimetry % efficacy (retigabine 50 μM = 100%) [%] |
| --- | --- | --- | --- |
| O=C(CCSc1ncccc1C(=O)NCC1CC2CCC1C2)c1ccc(F)cc1 (stereo not drawn) [compound 43, N-(5-Bicyclo[2.2.1]heptanyl-methyl)-2-[[3-(4-fluorophenyl)-3-oxo-propyl]sulfanyl]-pyridine-3-carboxylic acid amide] | 896 | 46 | – |
| CC1(C)CC1CNC(=O)c1cccnc1SCCCc1ccc(F)cc1 (stereo not drawn) [compound 38, N-[(2,2-Dimethyl-cyclopropyl)-methyl]-2-[3-(4-fluorophenyl)-propylsulfanyl]-pyridine-3-carboxylic acid amide] | 144 | 176 | – |
| O=C(NCc1cccc(-n2cccn2)c1)c1cccnc1SCCCc1ccc(F)cc1 [compound 140, 2-[3-(4-Fluorophenyl)-propylsulfanyl]-N-[[3-(1H-pyrazol-1-yl)-phenyl]-methyl]-pyridine-3-carboxylic acid amide] | 312 | 88 | – |
| O=C(NCC1CCCCCC1)c1cccnc1SCCCc1ccc(F)cc1 [compound 41, N-(Cycloheptyl-methyl)-2-[3-(4-fluorophenyl)-propylsulfanyl]-pyridine-3-carboxylic acid amide] | 157 | 159 | – |
| O=C(NCc1ccncc1)c1cccnc1SCCCc1ccc(F)cc1 [compound 128, 2-[3-(4-Fluorophenyl)-propylsulfanyl]-N-(pyridin-4-yl-methyl)-pyridine-3-carboxylic acid amide] | 1850 | 122 | – |
| O=C(NCc1cc(F)cc(F)c1)c1cccnc1SCCCc1ccc(F)cc1 [compound 36, N-[(3,5-Difluoro-phenyl)-methyl]-2-[3-(4-fluorophenyl)-propylsulfanyl]-pyridine-3-carboxylic acid amide] | 45 | 78 | – |
| O=C(NCc1ccc(F)cc1)c1cccnc1SCCC(F)(F)c1cccc(C(F)(F)F)c1 [compound 165, 2-[[3,3-Difluoro-3-[3-(trifluoromethyl)phenyl]-propyl]sulfanyl]-N-[(4-fluorophenyl)-methyl]-pyridine-3-carboxylic acid amide] | 30 | 119 | – |
| CC(CSc1ncccc1C(=O)NCC1CC2CCC1C2)Cc1ccc(F)cc1 (stereo not drawn) [compound 75, N-(5-Bicyclo[2.2.1]heptanyl-methyl)-2-[[3-(4-fluorophenyl)-2-methyl-propyl]sulfanyl]-pyridine-3-carboxylic acid amide] | 37 | 261 | – |
| COc1cccc(CCCSc2ncccc2C(=O)NCC2CC3CCC2C3)c1 (stereo not drawn) [compound 70, N-(5-Bicyclo[2.2.1]heptanyl-methyl)-2-[3-(3-methoxyphenyl)-propylsulfanyl]-pyridine-3-carboxylic acid amide] | 244 | 308 | – |
| O=C(NCc1cccs1)c1cccnc1CCCCc1ccc(F)cc1 [compound 22, 2-[4-(4-Fluorophenyl)-butyl]-N-(thiophen-2-yl-methyl)-pyridine-3-carboxylic acid amide] | 2350 | 150 | – |
| Cc1ccc(CNC(=O)c2cccnc2SCCC(F)(F)c2ccc(F)cc2)o1 [compound 191, 2-[[3,3-Difluoro-3-(4-fluorophenyl)-propyl]sulfanyl]-N-[(5-methyl-furan-2-yl)-methyl]-pyridine-3-carboxylic acid amide] | 37 | 202 | – |
| CC(CCc1cccc(C(F)(F)F)c1)Sc1ncccc1C(=O)NCCC(C)(C)C (stereo not drawn) [compound 149, N-(3,3-Dimethyl-butyl)-2-[[1-methyl-3-[3-(trifluoromethyl)phenyl]-propyl]sulfanyl]-pyridine-3-carboxylic acid amide] | 93 | 181 | – |
| O=C(NCc1cccnc1)c1cccnc1SCCCc1ccc(F)cc1 [compound 127, 2-[3-(4-Fluorophenyl)-propylsulfanyl]-N-(pyridin-3-yl-methyl)-pyridine-3-carboxylic acid amide] | 1860 | 147 | – |
| O=C(CCSc1ncccc1C(=O)NCc1cccs1)c1ccccc1 [compound 3] | – | – | 53 |
| O=C(NCCCc1cccnc1)c1cccnc1SCCCc1ccc(F)cc1 [compound 94, 2-[3-(4-Fluorophenyl)-propylsulfanyl]-N-(3-pyridine-3-yl-propyl)-pyridine-3-carboxylic acid amide] | 2210 | 181 | – |
| COC(C)CCNC(=O)c1cccnc1SCCC(F)(F)c1ccc(F)cc1 (stereo not drawn) [compound 193, 2-[[3,3-Difluoro-3-(4-fluorophenyl)-propyl]sulfanyl]-N-(3-methoxy-butyl)-pyridine-3-carboxylic acid amide] | 371 | 206 | – |
| Cc1cc(C)cc(CNC(=O)c2cccnc2SCCC(F)(F)c2ccc(F)cc2)c1 [compound 184, 2-[[3,3-Difluoro-3-(4-fluorophenyl)-propyl]sulfanyl]-N-[(3,5-dimethyl-phenyl)-methyl]-pyridine-3-carboxylic acid amide] | – | 23 | – |
| O=C(NCCc1ccncc1)c1cccnc1SCCCc1ccc(F)cc1 [compound 89, 2-[3-(4-Fluorophenyl)-propylsulfanyl]-N-(2-pyridine-4-yl-ethyl)-pyridine-3-carboxylic acid amide] | 5450 | 72 | – |

| Structure (SMILES) | EC50 [nM] | Emax [%] | Fluorimetry % efficacy (retigabine 50 μM = 100%) [%] |
| --- | --- | --- | --- |
| COC(=O)c1cccc(CNC(=O)c2cccnc2SCCCc2ccc(F)cc2)c1 [compound 129, 3-[[[2-[3-(4-Fluorophenyl)-propylsulfanyl]-pyridine-3-carbonyl]amino]-methyl]-benzoic acid methyl ester] | 325 | 122 | – |
| O=C(NCC1CCCCCCC1)c1cccnc1SCCCc1ccc(F)cc1 [compound 55, N-(Cyclooctyl-methyl)-2-[3-(4-fluorophenyl)-propylsulfanyl]-pyridine-3-carboxylic acid amide] | 227 | 149 | – |
| CC(C)CCNC(=O)c1cccnc1SC(C)CCc1cccc(C(F)(F)F)c1 (stereo not drawn) [compound 203, N-(3-Methyl-butyl)-2-[[1-methyl-3-[3-(trifluoromethyl)phenyl]-propyl]sulfanyl]-pyridine-3-carboxylic acid amide] | 20 | 233 | – |
| O=C(NCC1CCOCC1)c1cccnc1SCCC(F)(F)c1ccc(F)cc1 [compound 189, 2-[[3,3-Difluoro-3-(4-fluorophenyl)-propyl]sulfanyl]-N-(tetrahydro-pyran-4-yl-methyl)-pyridine-3-carboxylic acid amide] | 287 | 161 | – |
| CC(C)CCCSc1ncccc1C(=O)NCC1CC2CCC1C2 (stereo not drawn) [compound 28, N-(5-Bicyclo[2.2.1]heptanyl-methyl)-2-(4-methyl-pentylsulfanyl)-pyridine-3-carboxylic acid amide] | 1570 | 192 | – |
| O=C(NCc1nnco1)c1cccnc1SCCCc1ccc(F)cc1 [compound 158, 2-[3-(4-Fluorophenyl)-propylsulfanyl]-N-([1,3,4]oxadiazol-2-yl-methyl)-pyridine-3-carboxylic acid amide] | – | 30 | – |
| O=C(NCc1ccccc1O)c1cccnc1SCCCc1ccc(F)cc1 [compound 83, 2-[3-(4-Fluorophenyl)-propylsulfanyl]-N-[(2-hydroxyphenyl)-methyl]-pyridine-3-carboxylic acid amide] | 139 | 171 | – |
| O=C(NCc1ccc2cccnc2c1)c1cccnc1SCCCc1ccc(F)cc1 [compound 150, 2-[3-(4-Fluorophenyl)-propylsulfanyl]-N-(quinolin-7-yl-methyl)-pyridine-3-carboxylic acid amide] | 1490 | 96 | – |
| CC(C)(C)CCNC(=O)c1cccnc1SCCCc1ccc(F)cc1 [compound 42] | 128 | – | 164 |
| O=C(NCc1cccs1)c1cccnc1CCCCc1ccccc1 [compound 7, 2-(4-Phenyl-butyl)-N-(thiophen-2-yl-methyl)-pyridine-3-carboxylic acid amide] | – | 91 | – |
| O=C(NCC1CC2CCC1C2)c1cccnc1SCCCc1cccc(F)c1 (stereo not drawn) [compound 39, N-(5-Bicyclo[2.2.1]heptanyl-methyl)-2-[3-(3-fluorophenyl)-propylsulfanyl]-pyridine-3-carboxylic acid amide] | 250 | 250 | – |
| O=C(NCC1CC2CCC1C2)c1cccnc1SCCC(O)c1ccc(F)cc1 (stereo not drawn) [compound 50] | 1490 | – | 169 |
| O=C(NCc1ccc2c(c1)OCO2)c1cccnc1SCCCc1ccc(F)cc1 [compound 121, N-(1,3-Benzodioxol-5-yl-methyl)-2-[3-(4-fluorophenyl)-propylsulfanyl]-pyridine-3-carboxylic acid amide] | 256 | 99 | – |
| O=C(NCc1ccc(C(F)(F)F)cc1)c1cccnc1SCCCc1ccc(F)cc1 [compound 80, 2-[3-(4-Fluorophenyl)-propylsulfanyl]-N-[[4-(trifluoromethyl)-phenyl]-methyl]-pyridine-3-carboxylic acid amide] | 77 | 104 | – |
| O=C(NCC1CC2CCC1C2)c1cccnc1SCCOc1ccccc1 (stereo not drawn) [compound 46, N-(5-Bicyclo[2.2.1]heptanyl-methyl)-2-(2-phenoxy-ethylsulfanyl)-pyridine-3-carboxylic acid amide] | 672 | 238 | – |
| O=C(NCc1cccs1)c1cccnc1SCCCC1CCCCC1 [compound 2, 2-(3-Cyclohexyl-propylsulfanyl)-N-(thiophen-2-yl-methyl)-pyridine-3-carboxylic acid amide] | 1350 | 97 | – |
| COc1ccccc1CCCNC(=O)c1cccnc1SCCCc1ccc(F)cc1 [compound 130, 2-[3-(4-Fluorophenyl)-propylsulfanyl]-N-[3-(2-methoxyphenyl)-propyl]-pyridine-3-carboxylic acid amide] | 465 | 164 | – |
